Laboratory results published in patent publication US8669232B2, “Flavonol compounds, a bioactive extract/fraction from Ulmus wallichiana and its compounds for prevention for treatment of osteo-health related disorders” (Council of Scientific & Industrial Research, priority 2008, dated 2014).

How the values were obtained:
[1] = test system: ovariectomized Sprague Dawley rats; assay: Uterine weight in Ovx rats (estrogen agonistic effect); type: in vivo; settings: 1.0&5.0 mg/kg body weight, 90 days, uterine weight comparable with Ovx + vehicle
Method: Ethanolic extracts of […] at the doses of 500-& 750 mg/kg body weight were given daily by oral route to Sprague Dawley (180-200 g) rats after bilateral ovariectomy (Ovx). This is the most widely used animal model for osteopenia (bone loss) mimicking human condition of post-menopausal bone loss. The extract was given in gum acacia (vehicle). Sham operated rats and Ovx rats were used as controls and given only gum acacia. Each group consisted of 10 rats and the groups were as follows: sham intact, Ovx, Ovx+500 mg/kg extract and Ovx+750 mg/kg extract. Treatment started 24 h after the surgery and continued for 90 days. After 90 days, the rats were first acclimatized and then kept in metabolic cages with no food but only water for 24 h to collect urine samples. After 24 h, rats were returned to the cages with food and water ad libitum with oral administration of the extract as before foe an additional 24 hour. Rats were then euthanized and autopsied to collect blood, bones (tibia, femur, L1-L4 vertebrae) and uterus. […] at 1 to 10 mg/kg body weight were given daily by oral route to Sprague Dawley (180-200 g) rats after bilateral ovariectomy (Ovx). This is the most widely used animal model for osteopenia (bone loss) mimicking human condition of post-menopausal bone loss. The extract was given in gum acacia (vehicle). […]

[2] = test system: Ishikawa cells; assay: In vitro estrogenicity / anti-estrogenicity (ALP induction); type: cell-based, human; settings: 72 h; for inhibition of increase in ALP activity stimulated by 17β-estradiol (anti-estrogenicity): 10^−11 to 10^−6 M with 10^−8 M 17β-estradiol; for ALP levels (estrogenicity): 10^−11 to 10^−6 M
Method: The expression of alkaline phosphatase is induced in Ishikawa cells in response to estrogen or estrogen like substances (Littlefield et al, Endocrinology. 1990 December; 127(6):2757-62.). Ishikawa cells were plated in 96-well flat bottomed microtiter plates at a density of 5000 cells/well and cultured in phenol red free DMEM containing 10% charcoal treated FCS. After 24 h of plating, cells were serum-starved for 12 h. Thereafter, for testing estrogenicity of compounds, the cells were treated with different concentrations (10^−6 to 10^−11 M) of pure compounds K058 and K012. Same concentrations of Raloxifene were also used for comparison. Estrogen concentration of 10^−8 M was used as a positive control. Compound treatments were performed for 72 h at 37° C. in CO2 incubator. Experiments were repeated 4 times. For the anti-estrogenicity studies, the compounds K012 and K058 at 10^−6 to 10^−11 M were added with 10^−8 M estrogen. After 72 h of incubation, the media was removed and the plates were washed twice with PBS and dried by tapping, gently. Freeze fracture of cells was achieved by placing the plates at −70° C. for 15, min followed by bringing to room temperature. The plates were then placed on ice and 50 μl of ice cold diethanolamine solution (5 mM P-nitrophenyl phosphate (PNP) and 0.25 mM MgCl2 in 1 M diethanolamine) was added to each well. The plates were then placed at 37° C. for 30 minutes for color (yellow) development is a function of ALP activity. Absorbance was measured at 405 nm.

[3] = test system: growing female Sprague Dawley rats; assay: Attainment of peak bone mass: BMD by DEXA in growing rats; type: in vivo; settings: 21 days old female rats, 5 mg/kg body weight oral daily, 30 days; vs vehicle
Method: 21 days old female Sprague Dawley rats were divided into three groups, each group consisted of 10 rats; control (vehicle treated), 750 mg/kg C002 crude extract, and 50 mg/kg 914/F004. Vehicle or treatments were given daily by oral route in gum acacia for 30 days. After completion of 30 days the rats were euthanized and there bones (femur, tibia, L1-L4 vertebra) were collected.
Bone Mineral Density of Femur (Global, head, neck), tibia (global, head, tibio-fibular separation point) and lumber vertebra (LV1, LV2, LV3, LV4) was determined by DEXA.
Female Sprague Dawley rats at weaning (˜21 d old) were divided into two groups consisting of 10 rats per group. Control rats were treated with gum acacia (vehicle) and the other group was treated with K058 at 5 mg/kg body weight. All the control and treated rats were given K058 or vehicle daily by oral route in gum acacia for 30 days. After completion of 30 days the rats were euthanized and their bones (femur, tibia, L1-L4 vertebra) were collected.
Bone mineral density of femur (global, head, neck), tibia (global, head, tibio-fibular separation point) and lumber vertebra (LV1, LV2, LV3, LV4) was determined by DEXA.

O=c1c(O)c(-c2ccc(O)c(O)c2)oc2cc(O)c(C3O[C@H](CO)[C@@H](O)[C@H](O)[C@H]3O)c(O)c12 (stereo partly shown) [K012, 6-Glucopyranosyl-3,3′,4′,5,7-pentahydroxyflavone]
estrogen agonistic action at the uterine level (uterine weight) [1]: no estrogen agonistic action | inhibition of increase in ALP activity stimulated by 17β-estradiol (anti-estrogenicity) [2]: did not inhibit | ALP levels (estrogenicity) [2]: no increase

O=C1c2c(cc(O)c([C@@H]3OC(CO)[C@@H](O)[C@H](O)C3O)c2O)O[C@@H](c2ccc(O)c(O)c2)[C@@H]1O (stereo partly drawn) [K058, (2S,3S)-(+)-3′,4′,5,7-tetrahydroxydihydroflavonol-6-C-β-D-glucopyranoside]
estrogen agonistic action at the uterine level (uterine weight) [1]: no estrogen agonistic action | BMD shaft region of femur [3]: significantly more | inhibition of increase in ALP activity stimulated by 17β-estradiol (anti-estrogenicity) [2]: did not inhibit | ALP levels (estrogenicity) [2]: no increase
